Reference: patent US5674979A, “Agent for inhibiting symmetrical proteins, in particular enzymes” (priority 1989, dated 1997)
Like-named read-outs stand apart in the source and are kept apart here.

Assays:
HIV-1 [1] = settings: H9 cells
Method: Compounds (a), (b), (c), (d) were tested in the molarity range from 0.1 μM to 1000 μM. Infectivity tests were carried out as follows: an HIV-1 suspension containing 10^2 infectious units was absorbed on to 5×10^6 H9 cells in a volume of 1 ml for 2 hours at 4° C. After this time, 9 ml of tissue culture medium with the required inhibitor concentration was added. The medium was exchanged with fresh medium plus inhibitor daily. Two control cultures were also prepared, one without inhibitor to determine the normal virus replication rate, the other containing inhibitor but no virus, to determine whether the substances were cytotoxic for H9 cells. […] The amount of virus antigen produced by the infected cells was measured daily using Elisa for eight days, indicating the amount of HIV-1 antigen in the tissue culture medium. After this, the cells were pelleted, washed in medium without inhibitor, and further incubated in inhibitor-less medium. The antigen production was measured on days 9 and 12 (ie 1 and […] after removal of the inhibitor). Virus production was also measured on days 7, 8, 9, and 12 by determining the amount of reverse transcriptase in the supernatant of the cell medium.

HIV-1 [2] = test system: HIV-1
Method: Infectivity tests were carried out as follows: an HIV-1 suspension containing 10^2 infectious units was absorbed on to 5×10^6 H9 cells in a volume of 1 ml for 2 hours at 4° C. After this time, 9 ml of tissue culture medium with the required inhibitor concentration was added. The medium was exchanged with fresh medium plus inhibitor daily. Two control cultures were also prepared, one without inhibitor to determine the normal virus replication rate, the other containing inhibitor but no virus, to determine whether the substances were cytotoxic for H9 cells. […] The amount of virus antigen produced by the infected cells was measured daily using Elisa for eight days, indicating the amount of HIV-1 antigen in the tissue culture medium. After this, the cells were pelleted, washed in medium without inhibitor, and further incubated in inhibitor-less medium. The antigen production was measured on days 9 and 12 (ie 1 and 3 days after removal of the inhibitor). Virus production was also measured on days 7, 8, 9, and 12 by determining the amount of reverse transcriptase in the supernatant of the cell medium.

[3] = 0,1 μM, day 9 post infection, no inhibitor (after removal)
[4] = 0,1 μM, day 12 post infection, no inhibitor (after removal)
[5] = 1 μM, day 9 post infection, no inhibitor (after removal)
[6] = 1 μM, day 12 post infection, no inhibitor (after removal)
[7] = 10 μM, day 9 post infection, no inhibitor (after removal)
[8] = 10 μM, day 12 post infection, no inhibitor (after removal)
[9] = 100 μM, day 9 post infection, no inhibitor (after removal)
[10] = 100 μM, day 12 post infection, no inhibitor (after removal)
[11] = 1000 μM, day 9 post infection, no inhibitor (after removal)
[12] = 1000 μM, day 12 post infection, no inhibitor (after removal)

CC(C)C[C@H](NC(=O)OC(C)(C)C)C(=O)NCC(O)CC(=O)O (stereo partly drawn) [B, t-BOC-L-Leu-NH--CH2 --CHOH--CH2 --COOH]
HIV-1 antigen production as measured in antigen capture ELISA (HIV-1 [1]; 0,1 μM, day 1 post infection): 0,061 o. D. | HIV-1 antigen production as measured in antigen capture ELISA (HIV-1 [1]; 0,1 μM, day 2 post infection): 0,063 o. D. | HIV-1 antigen production as measured in antigen capture ELISA (HIV-1 [1]; 0,1 μM, day 3 post infection): 0,039 o. D. | HIV-1 antigen production as measured in antigen capture ELISA (HIV-1 [1]; 0,1 μM, day 4 post infection): 0,063 o. D. | HIV-1 antigen production as measured in antigen capture ELISA (HIV-1 [1]; 0,1 μM, day 5 post infection): 0,055 o. D. | HIV-1 antigen production as measured in antigen capture ELISA (HIV-1 [1]; 0,1 μM, day 6 post infection): 0,149 o. D. | HIV-1 antigen production as measured in antigen capture ELISA (HIV-1 [1]; 0,1 μM, day 7 post infection): 0,389 o. D. | HIV-1 antigen production as measured in antigen capture ELISA (HIV-1 [1]; 0,1 μM, day 8 post infection): 0,232 o. D. | HIV-1 antigen production as measured in antigen capture ELISA (HIV-1 [1]; [3]): 0,700 o. D. | HIV-1 antigen production as measured in antigen capture ELISA (HIV-1 [1]; [4]): 1,047 o. D. | HIV-1 antigen production as measured in antigen capture ELISA (HIV-1 [1]; 1 μM, day 1 post infection): 0,063 o. D. | HIV-1 antigen production as measured in antigen capture ELISA (HIV-1 [1]; 1 μM, day 2 post infection): 0,060 o. D. | HIV-1 antigen production as measured in antigen capture ELISA (HIV-1 [1]; 1 μM, day 3 post infection): 0,061 o. D. | HIV-1 antigen production as measured in antigen capture ELISA (HIV-1 [1]; 1 μM, day 4 post infection): 0,050 o. D. | HIV-1 antigen production as measured in antigen capture ELISA (HIV-1 [1]; 1 μM, day 5 post infection): 0,052 o. D. | HIV-1 antigen production as measured in antigen capture ELISA (HIV-1 [1]; 1 μM, day 6 post infection): 0,105 o. D. | HIV-1 antigen production as measured in antigen capture ELISA (HIV-1 [1]; 1 μM, day 7 post infection): 0,186 o. D. | HIV-1 antigen production as measured in antigen capture ELISA (HIV-1 [1]; 1 μM, day 8 post infection): 0,237 o. D. | HIV-1 antigen production as measured in antigen capture ELISA (HIV-1 [1]; [5]): 0,745 o. D. | HIV-1 antigen production as measured in antigen capture ELISA (HIV-1 [1]; [6]): 0,970 o. D. | HIV-1 antigen production as measured in antigen capture ELISA (HIV-1 [1]; 10 μM, day 1 post infection): 0,063 o. D. | HIV-1 antigen production as measured in antigen capture ELISA (HIV-1 [1]; 10 μM, day 2 post infection): 0,060 o. D. | HIV-1 antigen production as measured in antigen capture ELISA (HIV-1 [1]; 10 μM, day 3 post infection): 0,059 o. D. | HIV-1 antigen production as measured in antigen capture ELISA (HIV-1 [1]; 10 μM, day 4 post infection): 0,047 o. D. | HIV-1 antigen production as measured in antigen capture ELISA (HIV-1 [1]; 10 μM, day 5 post infection): 0,055 o. D. | HIV-1 antigen production as measured in antigen capture ELISA (HIV-1 [1]; 10 μM, day 6 post infection): 0,087 o. D. | HIV-1 antigen production as measured in antigen capture ELISA (HIV-1 [1]; 10 μM, day 7 post infection): 0,303 o. D. | HIV-1 antigen production as measured in antigen capture ELISA (HIV-1 [1]; 10 μM, day 8 post infection): 0,342 o. D. | HIV-1 antigen production as measured in antigen capture ELISA (HIV-1 [1]; [7]): 0,645 o. D. | HIV-1 antigen production as measured in antigen capture ELISA (HIV-1 [1]; [8]): 1,038 o. D. | HIV-1 antigen production as measured in antigen capture ELISA (HIV-1 [1]; 100 μM, day 1 post infection): 0,068 o. D. | HIV-1 antigen production as measured in antigen capture ELISA (HIV-1 [1]; 100 μM, day 2 post infection): 0,070 o. D. | HIV-1 antigen production as measured in antigen capture ELISA (HIV-1 [1]; 100 μM, day 3 post infection): 0,063 o. D. | HIV-1 antigen production as measured in antigen capture ELISA (HIV-1 [1]; 100 μM, day 4 post infection): 0,052 o. D. | HIV-1 antigen production as measured in antigen capture ELISA (HIV-1 [1]; 100 μM, day 5 post infection): 0,052 o. D. | HIV-1 antigen production as measured in antigen capture ELISA (HIV-1 [1]; 100 μM, day 6 post infection): 0,099 o. D. | HIV-1 antigen production as measured in antigen capture ELISA (HIV-1 [1]; 100 μM, day 7 post infection): 0,359 o. D. | HIV-1 antigen production as measured in antigen capture ELISA (HIV-1 [1]; 100 μM, day 8 post infection): 0,260 o. D. | HIV-1 antigen production as measured in antigen capture ELISA (HIV-1 [1]; [9]): 0,890 o. D. | HIV-1 antigen production as measured in antigen capture ELISA (HIV-1 [1]; [10]): 0,960 o. D. | HIV-1 antigen production as measured in antigen capture ELISA (HIV-1 [1]; 1000 μM, day 1 post infection): 0,076 o. D. | HIV-1 antigen production as measured in antigen capture ELISA (HIV-1 [1]; 1000 μM, day 2 post infection): 0,068 o. D. | HIV-1 antigen production as measured in antigen capture ELISA (HIV-1 [1]; 1000 μM, day 3 post infection): 0,050 o. D. | HIV-1 antigen production as measured in antigen capture ELISA (HIV-1 [1]; 1000 μM, day 4 post infection): 0,050 o. D. | HIV-1 antigen production as measured in antigen capture ELISA (HIV-1 [1]; 1000 μM, day 5 post infection): 0,063 o. D. | HIV-1 antigen production as measured in antigen capture ELISA (HIV-1 [1]; 1000 μM, day 6 post infection): 0,075 o. D. | HIV-1 antigen production as measured in antigen capture ELISA (HIV-1 [1]; 1000 μM, day 7 post infection): 0,279 o. D. | HIV-1 antigen production as measured in antigen capture ELISA (HIV-1 [1]; 1000 μM, day 8 post infection): 0,577 o. D. | HIV-1 antigen production as measured in antigen capture ELISA (HIV-1 [1]; [11]): 0,811 o. D. | HIV-1 antigen production as measured in antigen capture ELISA (HIV-1 [1]; [12]): 1,050 o. D. | Reverse Transkriptase Determination (HIV-1 [2]; 0,1 μM, day 7 post infection): 2099 epm/ml | Reverse Transkriptase Determination (HIV-1 [2]; 0,1 μM, day 8 post infection): 3091 epm/ml | Reverse Transkriptase Determination (HIV-1 [2]; [3]): 6180 epm/ml | Reverse Transkriptase Determination (HIV-1 [2]; [4]): 106830 epm/ml | Reverse Transkriptase Determination (HIV-1 [2]; 1 μM, day 7 post infection): 6105 epm/ml | Reverse Transkriptase Determination (HIV-1 [2]; 1 μM, day 8 post infection): 3006 epm/ml | Reverse Transkriptase Determination (HIV-1 [2]; [5]): 8474 epm/ml | Reverse Transkriptase Determination (HIV-1 [2]; [6]): 92020 epm/ml | Reverse Transkriptase Determination (HIV-1 [2]; 10 μM, day 7 post infection): 4614 epm/ml | Reverse Transkriptase Determination (HIV-1 [2]; 10 μM, day 8 post infection): 4188 epm/ml | Reverse Transkriptase Determination (HIV-1 [2]; [7]): 7187 epm/ml | Reverse Transkriptase Determination (HIV-1 [2]; [8]): 164920 epm/ml | Reverse Transkriptase Determination (HIV-1 [2]; 100 μM, day 7 post infection): 4033 epm/ml | Reverse Transkriptase Determination (HIV-1 [2]; 100 μM, day 8 post infection): 4418 epm/ml | Reverse Transkriptase Determination (HIV-1 [2]; [9]): 6575 epm/ml | Reverse Transkriptase Determination (HIV-1 [2]; [10]): 125290 epm/ml | Reverse Transkriptase Determination (HIV-1 [2]; 1000 μM, day 7 post infection): 3441 epm/ml | Reverse Transkriptase Determination (HIV-1 [2]; 1000 μM, day 8 post infection): 3159 epm/ml | Reverse Transkriptase Determination (HIV-1 [2]; [11]): 5503 epm/ml | Reverse Transkriptase Determination (HIV-1 [2]; [12]): 149020 epm/ml
